The values below come from patent publication US8017597B2, “Analgesic agent comprising cyclic phosphatidic acid derivative” (Ochanomizu University, priority 2006, dated 2011).

Data set [1] has as its system DNA polymerase α of eukaryotic cells. Particulars: cited from earlier work.
Data set [2] has as its system anesthetized cats. The following applies: cited from earlier work.
Data set [3] concerns anesthetized rats. Kind of data set: Heart rate increase reaction induced by frequent electrical stimulation of hindlimb afferent nerves, i.v. administration. Type of data set: in vivo, rat. Particulars: for suppressive effect on heart rate increase: anesthetized rats, i.v., electrical stimulation of lower extremity nerves. The text has this:
Among (1) “heart rate increase reaction induced by frequent electrical stimulation of hindlimb afferent nerves” employed herein is not induced by weak stimulation intensity (0.2 V) that excites only thick medullated A-fibers, but induced by stimulation intensity (1 V) that is the same or higher than the excitation threshold of thin medullated A-fibers. When the stimulation intensity is further increased (10 V) so as to cause excitation of nonmedullated C fibers, the amplification of the heart rate increase reaction is increased to reach the maximum level (Sato et al, J Auton Nery Syst 4: 231, 1981; Uchida et al, Neurosci Left 269: 161, 1999). Noxious information is transmitted by A-fibers and C fibers. Therefore, such heart rate increase reaction induced by excitation of somatic afferent A-fibers and C fibers can be an indicator for evaluation of analgesic effects.
Blood pressure waveform was collected using a pulse rate tachometer (AT601-O, Nihon Kohden) and the heart rate was recorded continuously.

Data set [4] is described as follows: Arterial blood pressure after i.v. cPA administration. Type of data set: in vivo, rat. The text has this:
The right femoral artery was cannulated. Arterial blood pressure was continuously recorded from the intra-arterial cannula using a pressure transducer (TP-400T, Nihon Kohden, Tokyo).

Data set [5] has as its system anesthetized rats.
The mark [6] stands for this setting: 50 μg/Kg i.v., 10 to 15 minutes after administration.
[7] abbreviates: 100 μg/Kg i.v., 10 to 15 minutes after administration.
Setting [8] is: 200 μg/Kg i.v., 10 to 15 minutes after administration.

“Also recorded” adds a separate entry of the source. Like-named read-outs stand apart in the source and are kept apart here.

DNA polymerase α of eukaryotic cells, sequence (P09884 whole entry): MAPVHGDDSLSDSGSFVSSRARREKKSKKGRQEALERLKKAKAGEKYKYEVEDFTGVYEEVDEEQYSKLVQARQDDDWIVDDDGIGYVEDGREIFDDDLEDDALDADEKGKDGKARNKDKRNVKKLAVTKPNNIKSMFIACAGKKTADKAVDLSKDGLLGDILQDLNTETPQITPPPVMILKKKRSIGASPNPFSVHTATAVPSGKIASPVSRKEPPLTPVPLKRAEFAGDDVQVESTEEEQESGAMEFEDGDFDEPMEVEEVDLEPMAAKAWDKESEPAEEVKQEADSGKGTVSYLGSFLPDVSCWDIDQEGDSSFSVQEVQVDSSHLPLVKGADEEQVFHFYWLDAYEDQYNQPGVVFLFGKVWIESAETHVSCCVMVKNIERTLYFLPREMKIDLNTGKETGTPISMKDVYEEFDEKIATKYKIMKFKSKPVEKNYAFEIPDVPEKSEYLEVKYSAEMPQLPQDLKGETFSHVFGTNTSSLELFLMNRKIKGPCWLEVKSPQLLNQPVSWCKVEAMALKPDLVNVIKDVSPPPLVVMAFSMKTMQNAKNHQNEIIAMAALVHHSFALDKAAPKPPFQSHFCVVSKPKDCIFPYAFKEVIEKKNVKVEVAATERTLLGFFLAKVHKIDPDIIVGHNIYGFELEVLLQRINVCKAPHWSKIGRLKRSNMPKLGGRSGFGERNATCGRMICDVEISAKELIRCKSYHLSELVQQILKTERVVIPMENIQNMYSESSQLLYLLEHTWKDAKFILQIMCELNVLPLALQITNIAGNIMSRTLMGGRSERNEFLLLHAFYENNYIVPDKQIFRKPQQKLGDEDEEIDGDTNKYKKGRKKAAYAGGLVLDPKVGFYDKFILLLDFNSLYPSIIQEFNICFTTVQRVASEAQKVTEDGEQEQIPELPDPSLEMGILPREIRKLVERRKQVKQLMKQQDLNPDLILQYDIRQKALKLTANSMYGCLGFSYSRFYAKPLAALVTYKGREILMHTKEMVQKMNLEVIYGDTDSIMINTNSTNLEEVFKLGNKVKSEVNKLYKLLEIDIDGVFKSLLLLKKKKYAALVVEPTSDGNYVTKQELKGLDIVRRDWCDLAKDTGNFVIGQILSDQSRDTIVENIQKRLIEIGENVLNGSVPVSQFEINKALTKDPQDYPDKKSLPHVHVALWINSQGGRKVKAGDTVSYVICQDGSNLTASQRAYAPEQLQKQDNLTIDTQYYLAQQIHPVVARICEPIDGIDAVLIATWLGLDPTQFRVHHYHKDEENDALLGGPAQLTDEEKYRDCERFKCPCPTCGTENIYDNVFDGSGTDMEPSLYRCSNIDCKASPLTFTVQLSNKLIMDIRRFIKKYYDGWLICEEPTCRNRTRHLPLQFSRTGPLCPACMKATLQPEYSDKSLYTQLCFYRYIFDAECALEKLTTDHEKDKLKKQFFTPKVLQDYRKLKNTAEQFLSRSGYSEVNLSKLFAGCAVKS
DNA polymerase α of eukaryotic cells, sequence (Q14181 whole entry partner): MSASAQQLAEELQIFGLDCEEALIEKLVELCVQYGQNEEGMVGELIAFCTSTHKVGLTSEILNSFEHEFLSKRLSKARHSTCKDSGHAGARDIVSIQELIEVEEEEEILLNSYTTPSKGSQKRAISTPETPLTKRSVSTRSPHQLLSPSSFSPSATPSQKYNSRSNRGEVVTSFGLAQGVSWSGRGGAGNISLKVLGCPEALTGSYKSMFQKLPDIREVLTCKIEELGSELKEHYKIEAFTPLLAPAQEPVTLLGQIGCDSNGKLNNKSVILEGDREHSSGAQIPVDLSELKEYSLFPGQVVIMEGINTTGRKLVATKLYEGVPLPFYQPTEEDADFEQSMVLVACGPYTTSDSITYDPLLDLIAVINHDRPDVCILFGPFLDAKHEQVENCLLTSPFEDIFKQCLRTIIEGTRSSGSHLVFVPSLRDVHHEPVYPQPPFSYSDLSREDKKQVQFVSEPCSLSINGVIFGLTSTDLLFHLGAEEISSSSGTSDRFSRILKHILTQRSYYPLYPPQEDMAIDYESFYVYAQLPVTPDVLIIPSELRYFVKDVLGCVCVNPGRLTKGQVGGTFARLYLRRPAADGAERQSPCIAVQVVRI
DNA polymerase α of eukaryotic cells, sequence (P49642 whole entry partner): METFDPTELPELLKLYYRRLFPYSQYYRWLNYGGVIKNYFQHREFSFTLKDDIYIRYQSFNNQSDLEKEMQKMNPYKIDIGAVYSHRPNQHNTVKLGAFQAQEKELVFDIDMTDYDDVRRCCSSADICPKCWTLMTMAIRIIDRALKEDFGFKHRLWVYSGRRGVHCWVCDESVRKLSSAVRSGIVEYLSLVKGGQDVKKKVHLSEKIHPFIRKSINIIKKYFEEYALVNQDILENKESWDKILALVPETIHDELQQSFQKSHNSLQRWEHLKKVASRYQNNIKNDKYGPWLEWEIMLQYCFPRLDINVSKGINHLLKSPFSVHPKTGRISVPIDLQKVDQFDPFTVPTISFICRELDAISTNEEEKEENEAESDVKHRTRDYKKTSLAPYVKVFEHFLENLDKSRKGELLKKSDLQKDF
DNA polymerase α of eukaryotic cells, sequence (P49643 whole entry partner): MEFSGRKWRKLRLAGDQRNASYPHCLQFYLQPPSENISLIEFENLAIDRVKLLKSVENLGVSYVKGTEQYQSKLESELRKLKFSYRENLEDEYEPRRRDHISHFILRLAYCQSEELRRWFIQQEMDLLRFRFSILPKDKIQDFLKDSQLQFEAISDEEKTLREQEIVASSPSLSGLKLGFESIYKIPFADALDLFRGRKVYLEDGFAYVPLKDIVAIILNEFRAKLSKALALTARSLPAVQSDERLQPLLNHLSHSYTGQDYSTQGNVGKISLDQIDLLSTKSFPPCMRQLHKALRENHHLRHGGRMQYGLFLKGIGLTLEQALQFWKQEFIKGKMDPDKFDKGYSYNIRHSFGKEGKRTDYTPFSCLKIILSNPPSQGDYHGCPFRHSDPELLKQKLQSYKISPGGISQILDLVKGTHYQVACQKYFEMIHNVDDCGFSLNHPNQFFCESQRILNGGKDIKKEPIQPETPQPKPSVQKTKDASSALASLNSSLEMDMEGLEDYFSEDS

For the compound `CCCCCC[C@@H]1C[C@@H]1CCCCCCCC(=O)OC[C@@H]1COP(=O)(O)O1` [PHYLPA], the “effect on activity of DNA polymerase α” value in data set [1] is reported as “suppresses”.
`CN1CC[C@]23c4c5ccc(O)c4O[C@H]2[C@@H](O)C=C[C@H]3[C@H]1C5` [morphine]: the “effect on C-reflex potential” value in data set [2] is “selectively suppresses C-reflex potential alone”.
Turning to `CCCCCCCC/C=C\CCCCCCCC(=O)OCC1COP(=O)(O)O1` (stereo not shown) [Ole-cPA, 1-oleoyl cyclic phosphatidic acid], the “suppressive effect on heart rate increase” value in data set [3] is “significantly suppressed; also recorded: significantly observed”. Moreover, in data set [3] (dose 5 mg/Kg body weight i.v.), the “heart rate increase compared with control” value is “a half of or lower than that of the control”. Also, in data set [3] (dose 5 mg/Kg i.v., after 20 minutes), the “suppressive effect on heart rate increase after 20 minutes” value was “significant suppressive effect”. Further, the “duration of the suppressive effect on heart rate increase” value in data set [3] (dose higher than 1 mg/Kg body weight i.v.) was at least 20 min. For the same compound, the “effects of administration on blood pressure” value in data set [4] (anesthetized rats, i.v.) is listed as “not observed”. Also, in data set [4] (dose 2 mg/Kg body weight or less i.v.), the blood pressure was about 90 mmHg. In data set [5] (2 mg/Kg i.v.), the “decrease in depolarization level of C reflex” value is given as “approximately 50%”. For the same compound, the “changes in discharge level of Aδ reflex” value in data set [5] (after administration, compared with C reflex) is reported as “inconsistent”. The “change in discharge/depolarization level of cardiac nerves, particularly C reflex” value (“change in discharge/depolarization level” for short) in data set [5] (anesthetized rats, i.v.) was “decreased”. Also, the “decrease in discharge level of C reflex” value in data set [5] (any concentration, 10 to 15 minutes after administration) is listed as “approximately 1 mV”; in data set [5] (any concentration, 10 to 15 minutes after administration, relative to before administration), “up to 40%”; in data set [5] (dose 2 mg/Kg, 30 minutes after administration, compared with before administration), “approximately 20%”.
For `CCCCCCCCCCCCCCCC(=O)OCC1COP(=O)(O)O1` (stereo not shown) [Pal-cPA], in data set [3], the “suppressive effect on heart rate increase” value is on record as “no consistent tendency could be confirmed; also recorded: not significant”. In addition, the blood pressure is listed as 130 mmHg in data set [4] (after dose of 2 mg/Kg body weight i.v.); “around 100 mmHg” in data set [4] (dose 300 μg/Kg body weight i.v., brief increase); “around 130 mmHg” in data set [4] (dose 2 mg/Kg i.v., thereafter up to 30 minutes after administration).
Turning to `CCCCCC/C=C\CCCCCCCC(=O)OCC1COP(=O)(O)C1` (stereo not shown) [Pal-2 ccPA, palmitoleoyl 2 carba cPA], the “decrease in depolarization level of C reflex” value in data set [5] (setting [6]) is on record as at least 30%; in data set [5] (setting [7]), “approximately 60%”; in data set [5] (setting [8]), “approximately 70%”; in data set [5] (500 μg/Kg i.v., 10 to 15 minutes after administration), “approximately 80%”. The “change in discharge/depolarization level” value in data set [5] (anesthetized rats, i.v.) is recorded as “significant decrease”.
Regarding `CCCCCC/C=C\CCCCCCCC(=O)OCC1CCP(=O)(O)O1` (stereo not shown) [Pal-3 ccPA, palmitoleoyl 3 carba cPA], the entries for the “decrease in depolarization level of C reflex” value in data set [5] (setting [6]), in data set [5] (setting [7]) and in data set [5] (setting [8]) were “approximately 30%”, “approximately 50%” and “approximately 60%”, respectively. For the same compound, the “change in discharge/depolarization level” value in data set [5] (anesthetized rats, i.v.) was “significant decrease”. Moreover, in data set [5] (i.v., anesthetized rats), the “degree of decrease in C reflex depolarization compared with 2 carba derivatives” value is reported as “somewhat lower”.
